Assay results: patent publication US20250319107A1, “USE OF CANNABIDIOL AND CLOBAZAM IN THE TREATMENT OF CHILDHOOD-ONSET EPILEPSY SYNDROMES” (GW Research Limited, priority 2021, published 2025)

What was measured:
patients with LGS or DS = test: Phase 3 randomized controlled trials of CBD versus placebo, adverse reactions in DS and LGS patients; type: in vivo, human; conditions: for Rash, adverse reaction incidence / Somnolence (grouped: somnolence, sedation), adverse reaction incidence / Weight decreased, adverse reaction incidence / Abnormal behavior, adverse reaction incidence / Aggression, adverse reaction incidence / Agitation, adverse reaction incidence / Alanine aminotransferase increased, adverse reaction incidence / Aspartate aminotransferase increased, adverse reaction incidence / Decreased appetite, adverse reaction incidence / Diarrhea, adverse reaction incidence / Drooling, adverse reaction incidence / Fatigue, adverse reaction incidence / Gamma-glutamyl transferase increased, adverse reaction incidence / Insomnia, adverse reaction incidence / Irritability, adverse reaction incidence / Lethargy, adverse reaction incidence / Liver function test increased, adverse reaction incidence / Pneumonia (grouped terms), adverse reaction incidence / Pyrexia, adverse reaction incidence: DS and LGS, 14-week treatment; for Subjects with pneumonia, %: LGS and DS; for Pneumonia incidence: controlled trials
Description: (§1) Randomized, double-blind, parallel-group, trials of CBD versus placebo were undertaken and the adverse event experienced by the patients were collated and investigated.
(§2) In summary patients completed a 1-week screening period and a 4-week baseline period before they were randomized to receive CBD or equivalent volumes of placebo. Randomization was stratified by age.
(§3) Patients began a 4-week dose escalation period, titrating up to their assigned dose, before continuing on a stable dose of blinded investigational medicinal product (IMP) for 12 or 14 weeks.
Dose escalation for each patient was subject to the investigator's assessment of safety and tolerability. If a dose became poorly tolerated, the investigator may consider temporarily or permanently reducing the dose for the remainder of the study.
Clinic visits occurred for screening (Day-35), baseline (Day-28), randomization (Day 1) and, on Days 15 and 29 during titration and on Days 43, 57, 71 (telephone) and 85 until the end of treatment (Day 113). Safety telephone calls were completed every two days during titration, one week after the end of titration and, for patients not entering the open label extension (OLE), weekly from Visit 10 to Visit 12.
(§4) Safety and tolerability measures that were recorded included: adverse events; clinical laboratory parameters; 12-lead electrocardiogram (ECG); physical examination parameters (including height and weight); vital signs; Columbia-Suicide Severity Rating Scale (C-SSRS; 19+ years) or C-SSRS Children's (6-18 years) score, where applicable; number of inpatient hospitalizations due to epilepsy; abuse liability and effects on menstruation cycles (in females).
Table 1.1 below lists the adverse reactions that were reported in DS and LGS patients treated with CBD during the 14-week treatment period in the Phase 3 controlled trials.

mice = conditions: after administration of pro-convulsant drugs or an electric current; cited from earlier work
[1] = test system: patients with LGS, DS, or TSC; test: Double-blind placebo-controlled trials across LGS, DS and TSC, overall statements; type: in vivo, human
Description: as §1, §2, §3, §4

[2] = test system: institutionalized adult patients; conditions: 200 mg/day of pure CBD; twelve institutionalized adult patients; open label; cited from earlier work
[3] = test system: adult patients with generalized epilepsy; conditions: eight adult patients with generalized epilepsy; cited from earlier work
adult patients = conditions: 200 mg/day of pure CBD; four adult patients; cited from earlier work
[4] = All active (n = 456, includes 10 patients at 5 mg/kg/day)

## C=C(C)[C@@H]1CCC(C)=C[C@H]1c1c(O)cc(CCCCC)cc1O [CBD, cannabidiol]
Patients with LGS or DS; 10 mg/kg/day (n = 139)
  Rash, adverse reaction incidence: 2%
  Somnolence (grouped: somnolence, sedation), adverse reaction incidence: 26%
  Weight decreased, adverse reaction incidence: 1%
Patients with LGS or DS; 20 mg/kg/day (n = 307)
  Abnormal behavior, adverse reaction incidence: 3%
  Aggression, adverse reaction incidence: 5%
  Agitation, adverse reaction incidence: 1%
  Alanine aminotransferase increased, adverse reaction incidence: 7%
  Aspartate aminotransferase increased, adverse reaction incidence: 7%
  Decreased appetite, adverse reaction incidence: 24%
  Diarrhea, adverse reaction incidence: 21%
  Drooling, adverse reaction incidence: 3%
  Fatigue, adverse reaction incidence: 13%
  Gamma-glutamyl transferase increased, adverse reaction incidence: 5%
  Insomnia, adverse reaction incidence: 3%
  Irritability, adverse reaction incidence: 5%
  Lethargy, adverse reaction incidence: 6%
  Liver function test increased, adverse reaction incidence: 3%
  Pneumonia (grouped terms), adverse reaction incidence: 5%
  Pyrexia, adverse reaction incidence: 15%
  Rash, adverse reaction incidence: 5%
  Somnolence (grouped: somnolence, sedation), adverse reaction incidence: 29%
  Weight decreased, adverse reaction incidence: 4%
Patients with LGS or DS; [4]
  Abnormal behavior, adverse reaction incidence: 2%
  Aggression, adverse reaction incidence: 4%
  Agitation, adverse reaction incidence: 1%
  Alanine aminotransferase increased, adverse reaction incidence: 6%
  Aspartate aminotransferase increased, adverse reaction incidence: 6%
  Decreased appetite, adverse reaction incidence: 21%
  Diarrhea, adverse reaction incidence: 18%
  Drooling, adverse reaction incidence: 2%
  Fatigue, adverse reaction incidence: 11%
  Gamma-glutamyl transferase increased, adverse reaction incidence: 4%
  Insomnia, adverse reaction incidence: 3%
  Irritability, adverse reaction incidence: 6%
  Lethargy, adverse reaction incidence: 5%
  Liver function test increased, adverse reaction incidence: 2%
  Pneumonia (grouped terms), adverse reaction incidence: 6%
  Pyrexia, adverse reaction incidence: 16%
  Rash, adverse reaction incidence: 4%
  Somnolence (grouped: somnolence, sedation), adverse reaction incidence: 29%
  Weight decreased, adverse reaction incidence: 3%
Patients with LGS or DS; With CLB, 10 mg/kg/day, N1 = 85
  Subjects with pneumonia, %: 14.1%
Patients with LGS or DS; With CLB, 20 mg/kg/day, N1 = 167
  Subjects with pneumonia, %: 7.2%
Patients with LGS or DS; Without CLB, 20 mg/kg/day, N2 = 140
  Subjects with pneumonia, %: 2.9%
Patients with LGS or DS; patients with LGS and DS, normal haemoglobin at baseline, later below lower limit of normal
  Patients who developed a new laboratory-defined anaemia during the study: 27%
Patients with LGS or DS; patients with LGS or DS
  Discontinuation incidence for transaminase elevation: dose responsive
Patients with LGS or DS; with clobazam, 10 mg/kg/day CBD
  Pneumonia incidence: 14%
Patients with LGS or DS; with clobazam, 20 mg/kg/day CBD
  Pneumonia incidence: 7%
Patients with LGS or DS; without concomitant clobazam, 10 mg/kg/day CBD
  Pneumonia incidence: 0%
Patients with LGS or DS; without concomitant clobazam, 20 mg/kg/day CBD
  Pneumonia incidence: 3%
mice
  Prevention of seizures: able to prevent seizures
[1]; CBD alone or in combination with clobazam, across all treatment groups
  Seizure frequency versus placebo: significant reduction
[1]; patients with LGS, DS, or TSC
  Decrease in weight: dose related
[1]; versus patients not taking clobazam, LGS, DS and TSC
  Incidence of pneumonia in patients concurrently taking clobazam in addition to CBD: significantly higher
[2]
  Control of seizures: ineffective
[3]
  Number of patients with a marked reduction of seizures: 4
Adult patients
  Patients who became seizure free: two of the four
